# According to US8877798B2, “1-aryl-3-azabicyclo[3.1.0]hexanes: preparation and use to treat neuropsychiatric disorders” (priority 2005, dated 2014):
# Where two headings read alike, the source gives them in different places.
# What was measured:
# [1] = target: NET (Homo sapiens (Human), UniProt P23975); experiment: NET binding
# [2] = target: dopamine (DA) uptake, rat striatum synaptosomes (Rattus norvegicus (Rat), UniProt P23977); experiment: Dopamine (DA) uptake inhibition in rat striatum synaptosomes; format: biochemical
# Protocol: (§1) The effects of exemplary compounds of the invention on the cellular uptake of norepinephrine (NE), dopamine (DA) and serotonin (5-HT) were tested in preparations of synaptosomes from different rat brain regions using the previously-reported techniques referenced below.
# (§2) Whole brains were obtained from normal rats. Synaptosomal preparations were made from either whole brain (5-HT), striatum (DA) or hypothalamus (NE) by gentle disruption in 10 volumes (w/v) of 0.32 M sucrose (0-4° C.) using a Teflon-glass homogenizer. The homogenate was then centrifuged at 1000×g for 10 min. The supernatant was retained and centrifuged at 23000 g for 20 min. The resulting pellet was gently resuspended in 200 volumes of 0.32 M sucrose (0-4° C.) using the Teflon-glass homogenizer. Aliquots (250 μL) of this preparation were added to tubes, along with 0.2 μCi/mL of [^3H]5-HT, [^3H]DA, or [^3H]NE, 200 μL of the test compounds (to yield final concentrations of 100 nM, 300 nM, 1 μM, 3 μM, 10 μM, 30 μM or 100 μM) and 1 mL of Krebs-Ringer bicarbonate buffer (pH 7.4). The mixtures were incubated for either 15 (DA and 5-HT uptake) or 20 (NE uptake) minutes at 37° C. At the end of this period, the assay was terminated by rapid filtration over Whatman GF/C glass fiber filters. The filters were rinsed 3 times with 4 ml of Krebs-Ringer bicarbonate buffer (0-4° C.), and the radioactivity retained on the filters measured by liquid scintillation spectrometry.
# (§3) Each assay was run according to the description of the respective publications cited above, and according to the following parameters/reagents/conditions.
# (§4) In each experiment, the respective reference compound was tested concurrently with the test compounds in order to assess the assay suitability. It was tested at several concentrations (for IC50 value determination). The assay was considered valid if the suitability criteria were met, in accordance with the corresponding Standard Operating Procedure.
# The results of these uptake inhibition assays are expressed below as a percent of control values obtained in the […] of the test compounds. Individual and mean values are presented with the results. The IC50 values (concentration causing a half-maximal inhibition of control values) were determined by non-linear regression analysis of the inhibition curves using Hill equation curve fitting.
# [3] = target: SERT (Homo sapiens (Human), UniProt P31645); experiment: SERT binding
# [4] = target: 5-HT uptake, rat brain synaptosomes (Rattus norvegicus (Rat), UniProt P31652); experiment: 5-HT uptake inhibition in rat brain synaptosomes; format: biochemical
# Protocol: as §1, §2, §3, §4
# Individual and mean values are presented with the results. The IC50 values (concentration causing a half-maximal inhibition of control values) were determined by non-linear regression analysis of the inhibition curves using Hill equation curve fitting.
# [5] = target: DAT (Homo sapiens (Human), UniProt Q01959); experiment: DAT binding
# [6] = tested on: reuptake of norepinephrine, serotonin and dopamine; details: reported in the literature (Skolnick et al. 2003); cited from earlier work
# [7] = [3H]5-HT, rat brain synaptosomes, 15 min at 37° C., read-out: Uptake IC50 (nM) 5-HT
# dopamine (DA) uptake, rat striatum synaptosomes, sequence (P23977 whole entry): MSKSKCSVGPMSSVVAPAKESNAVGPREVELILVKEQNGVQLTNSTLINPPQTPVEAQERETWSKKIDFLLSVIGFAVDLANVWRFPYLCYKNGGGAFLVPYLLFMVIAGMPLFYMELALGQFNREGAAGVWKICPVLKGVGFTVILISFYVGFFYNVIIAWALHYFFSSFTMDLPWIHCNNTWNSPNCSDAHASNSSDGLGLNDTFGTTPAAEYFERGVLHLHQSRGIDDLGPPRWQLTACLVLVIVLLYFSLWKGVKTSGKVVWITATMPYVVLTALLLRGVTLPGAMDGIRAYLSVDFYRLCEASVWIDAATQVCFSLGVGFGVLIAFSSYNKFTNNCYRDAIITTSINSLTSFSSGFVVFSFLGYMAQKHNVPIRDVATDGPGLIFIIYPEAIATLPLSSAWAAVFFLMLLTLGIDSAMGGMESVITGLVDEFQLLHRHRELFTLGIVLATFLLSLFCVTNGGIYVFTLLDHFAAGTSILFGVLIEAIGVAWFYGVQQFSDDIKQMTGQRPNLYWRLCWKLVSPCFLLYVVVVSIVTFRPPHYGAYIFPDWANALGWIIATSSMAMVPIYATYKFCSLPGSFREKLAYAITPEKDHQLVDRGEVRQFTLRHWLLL
SMILES,Ki ([1]; read-out: Binding NET Ki) [nM],IC50 [2] [nM],Ki ([3]; read-out: Binding SERT Ki) [nM],"IC50 [4, 7] [nM]",Ki ([5]; read-out: Binding DAT Ki) [nM],also measured
CN1CC2C[C@@]2(c2ccc(Cl)c(Cl)c2)C1 (stereo partly shown),81,120,16,23,105,
CN1CC2C[C@]2(c2ccc(Cl)c(Cl)c2)C1 (stereo partly shown),490,130,125,87,62,
CCN1CC2C[C@@]2(c2ccc(Cl)c(Cl)c2)C1 (stereo partly shown),32,80,88,56,13,
CCN1CC2C[C@]2(c2ccc(Cl)c(Cl)c2)C1 (stereo partly shown),585,190,113,45,46,
CCCN1CC2CC2(c2ccc(Cl)c(Cl)c2)C1 (stereo not shown),1830,1000,1670,470,250,
CCCN1CC2C[C@@]2(c2ccc(Cl)c(Cl)c2)C1 (stereo partly shown),4000,1800,2000,590,220,
CCCN1CC2C[C@]2(c2ccc(Cl)c(Cl)c2)C1 (stereo partly shown),1070,770,2400,390,170,
CCCCN1CC2CC2(c2ccc(Cl)c(Cl)c2)C1 (stereo not shown),2200,78,6100,1200,240,
CCCCN1CC2C[C@@]2(c2ccc(Cl)c(Cl)c2)C1 (stereo partly shown),1900,2200,7600,3000,395,
CCCCN1CC2C[C@]2(c2ccc(Cl)c(Cl)c2)C1 (stereo partly shown),1100,1200,8900,2600,215,
CC(C)N1CC2CC2(c2ccc(Cl)c(Cl)c2)C1 (stereo not shown),827,260,124,30,39,
CC(C)N1CC2C[C@@]2(c2ccc(Cl)c(Cl)c2)C1 (stereo partly shown),510,330,330,170,25,
CC(C)N1CC2C[C@]2(c2ccc(Cl)c(Cl)c2)C1 (stereo partly shown),5150,430,132,100,72,
Clc1ccc(C23CC2CN(C2CC2)C3)cc1Cl (stereo not shown),9500,1500,3700,2600,1700,
CC(C)(C)N1CC2CC2(c2ccc(Cl)c(Cl)c2)C1 (stereo not shown),,,,,,"Ki [1]: 9300 nM; IC50 ([2]; [3H]DA, rat striatum synaptosomes, 15 min at 37° C., read-out: Uptake IC50 (nM) DA): 1500 nM; Ki [3]: 800 nM; IC50 [4]: 240 nM; Ki [5]: 420 nM"
CN1CC2CC2(c2ccc(F)cc2F)C1 (stereo not shown),6600,7400,,1100,,
CN1CC2CC2(c2ccc(F)c(F)c2)C1 (stereo not shown),990,1800,1600,400,1900,
Fc1ccc(C23CNCC2C3)cc1Cl (stereo not shown),1700,1400,230,310,680,
Fc1ccc([C@]23CNCC2C3)cc1Cl (stereo partly shown),,572,,186,,
CN1CC2CC2(c2ccc(F)c(Cl)c2)C1 (stereo not shown),350,770,190,79,640,
CN1CC2C[C@@]2(c2ccc(F)c(Cl)c2)C1 (stereo partly shown),,494,,362,,
CN1CC2C[C@]2(c2ccc(F)c(Cl)c2)C1 (stereo partly shown),,,,835,,

SMILES,Ki ([1]; read-out: Binding NET Ki) [nM],IC50 [2] [nM],Ki ([3]; read-out: Binding SERT Ki) [nM],"IC50 [4, 7] [nM]",Ki ([5]; read-out: Binding DAT Ki) [nM],also measured
Fc1cc([C@]23CNCC2C3)ccc1Cl (stereo partly shown),,420,,252,,
CN1CC2C[C@@]2(c2ccc(Cl)c(F)c2)C1 (stereo partly shown),,437,,413,,
CN1CC2CC2(c2ccc(Cl)cc2Cl)C1 (stereo not shown),6200,10000,500,520,,
Cc1cc(C23CC2CN(C)C3)ccc1F (stereo not shown),920,370,540,200,2200,
Cc1ccc(C23CNCC2C3)cc1F (stereo not shown),,457,,266,,
Cc1ccc([C@]23CNCC2C3)cc1F (stereo partly shown),,401,,133,,
Cc1ccc(C23CC2CN(C)C3)cc1F (stereo not shown),260,700,830,110,270,
Cc1ccc([C@@]23CC2CN(C)C3)cc1F (stereo partly shown),,383,,836,,
Cc1ccc([C@]23CC2CN(C)C3)cc1F (stereo partly shown),,917,,702,,
CN1CC2CC2(c2ccc([N+](=O)[O-])c(Cl)c2)C1 (stereo not shown),,,710,790,,
CN1CC2CC2(c2cccc3ccccc23)C1 (stereo not shown),,512,,119,,
CN1CC2C[C@@]2(c2cccc3ccccc23)C1 (stereo partly shown),,903,,,,
c1ccc2cc([C@]34CNCC3C4)ccc2c1 (stereo partly shown),,49,,,,IC50 [4]: 65 nM
c1ccc2cc([C@@]34CNCC3C4)ccc2c1 (stereo partly shown),,98,,,,IC50 [4]: 170 nM
CN1CC2CC2(c2ccc3ccccc3c2)C1 (stereo not shown),520,350,6,31,68,
CN1CC2C[C@@]2(c2ccc3ccccc3c2)C1 (stereo partly shown),,82,,< 10,,
CN1CC2C[C@]2(c2ccc3ccccc3c2)C1 (stereo partly shown),,147,,117,,
COc1ccc2cc(C34CNCC3C4)ccc2c1 (stereo not shown),,208,,82,,
COc1ccc2cc(C34CC3CN(C)C4)ccc2c1 (stereo not shown),,91,,14,,
CCOc1ccc2cc(C34CNCC3C4)ccc2c1 (stereo not shown),,563,,700,,
CCOc1ccc2cc(C34CC3CN(C)C4)ccc2c1 (stereo not shown),,360,,210,,
"Clc1ccc(C23CNCC2C3)cc1Cl (stereo not shown) [1-(3,4-dichlorophenyl)-3-azabicyclo[3.1.0]hexane]",,,,,,"inhibition of reuptake of norepinephrine, serotonin and dopamine [6]: inhibit reuptake of norepinephrine, serotonin and dopamine"
